{"source": "paper PMC10605370", "about": "(Biomolecules, 2023)", "key": {"[1]": {"molecular_target": "phosphorylation-null (PO4-null) rat D2 dopamine receptor, long isoform, fused to Rluc8 (rat) (UniProt P61169)", "sequence (P61169 whole entry, the tested form may be a part, canonical isoform)": "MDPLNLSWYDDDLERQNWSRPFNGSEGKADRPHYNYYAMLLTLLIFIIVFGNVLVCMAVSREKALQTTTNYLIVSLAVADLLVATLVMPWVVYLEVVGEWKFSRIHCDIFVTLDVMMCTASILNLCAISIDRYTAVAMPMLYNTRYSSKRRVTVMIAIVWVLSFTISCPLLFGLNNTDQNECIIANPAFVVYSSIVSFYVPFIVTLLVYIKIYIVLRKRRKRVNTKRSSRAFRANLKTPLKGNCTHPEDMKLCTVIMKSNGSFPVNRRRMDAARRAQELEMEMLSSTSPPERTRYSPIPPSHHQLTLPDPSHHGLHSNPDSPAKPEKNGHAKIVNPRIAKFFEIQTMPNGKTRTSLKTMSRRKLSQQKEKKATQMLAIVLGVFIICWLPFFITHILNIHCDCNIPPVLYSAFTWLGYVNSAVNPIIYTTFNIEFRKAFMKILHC", "experiment": "FRET or BRET; GRK2 recruitment BRET in live HEK293 cells transfected with D2R-Rluc8 (donor) and GRK2-rGFP (acceptor), with or without compound 101; DPBS with 200 µM sodium metabisulphite, room temperature, 2 µM Prolume Purple; dopamine for 5 min"}, "[2]": {"molecular_target": "phosphorylation-null (PO4-null) rat D2 dopamine receptor, long isoform, fused to Rluc8 (rat) (UniProt P61169)"}, "[3]": {"molecular_target": "T1, Human D2RL (Homo sapiens, UniProt P14416)", "T1 sequence (P14416 whole entry)": "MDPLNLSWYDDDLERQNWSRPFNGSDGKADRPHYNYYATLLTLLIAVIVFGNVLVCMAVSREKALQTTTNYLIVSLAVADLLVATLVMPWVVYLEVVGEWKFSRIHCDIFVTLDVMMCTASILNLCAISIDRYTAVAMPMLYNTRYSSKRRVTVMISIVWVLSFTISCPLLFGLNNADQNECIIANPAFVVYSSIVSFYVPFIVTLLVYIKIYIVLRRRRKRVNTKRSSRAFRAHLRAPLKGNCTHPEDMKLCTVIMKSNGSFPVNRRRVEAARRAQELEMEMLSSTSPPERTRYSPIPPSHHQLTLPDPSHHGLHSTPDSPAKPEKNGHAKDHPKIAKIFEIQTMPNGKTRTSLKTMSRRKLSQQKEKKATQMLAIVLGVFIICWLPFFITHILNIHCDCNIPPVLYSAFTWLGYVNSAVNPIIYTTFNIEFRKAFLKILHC", "experiment": "β-arrestin2 recruitment BRET assay", "format": "cell-based", "settings": "dose-dependent; maximally effective concentrations (10–100 µM)"}, "[4]": {"molecular_target": "PO4-null D2R (Rattus norvegicus, UniProt P61169)", "sequence (P61169 whole entry)": "as the sequence (P61169 whole entry, the tested form may be a part, canonical isoform) above", "experiment": "β-arrestin2 recruitment BRET assay, PO4-null D2R", "format": "cell-based", "settings": "dose-dependent (Figure 4D)"}, "[5]": {"test_system": "other GRK isoforms", "settings": "selectively inhibits the GRK2/3 subfamily; cited from earlier work"}, "[6]": {"test_system": "D2R–GRK2 interactions", "set-up": "method as in Pack et al., 2018 [21]", "settings": "similar BRET assay; ref Pack et al., 2018 [21]; cited from earlier work"}, "[7]": {"molecular_target": "T1, Human D2RL", "experiment": "LYN BRET receptor internalization assay", "format": "cell-based", "set-up": "expressed in transfected cells; host or cells: HEK293 (parental or GRK knockout lines)", "settings": "dose-dependent; maximally effective concentration of 100 µM", "method": "HEK293 cells were transiently transfected with the indicated D2R-Rluc8 (35 mm plate: 0.1 μg; 100 mm plate: 0.5 μg) and LYN-rGFP (35 mm plate: 1 μg; 100 mm plate: 5 μg) constructs and the indicated GRK construct (35 mm plate: 1 μg; 100 mm plate: 5 μg) or pcDNA control."}, "[8]": {"molecular_target": "T1, Human D2RL", "experiment": "GRK2-GFP recruitment BRET assay (D2R–GRK2 interactions)", "format": "cell-based", "set-up": "expressed in transfected cells; host or cells: HEK293 (parental or GRK knockout lines)", "settings": "dose-dependent (Figure 3C)"}, "[9]": {"molecular_target": "T1, Human D2RL", "experiment": "Go heterotrimer activation BRET assay", "format": "cell-based", "set-up": "expressed in transfected cells; host or cells: HEK293 (parental or GRK knockout lines)", "settings": "Cmpd101 treatment of HEK293 cells", "method": "HEK293 cells were transiently transfected with the Gαo1-Rluc8 (35 mm plate: 0.1 μg; 100 mm plate: 0.5 μg), Gβ1 (35 mm plate: 0.9 μg; 100 mm plate: 4.5 μg), and Gγ2-mVenus (35 mm plate: 1 μg; 100 mm plate: 5 μg) constructs and the indicated untagged D2R construct (35 mm plate: 1 μg; 100 mm plate: 5 μg). […] Cells were then plated in 96-well white solid bottom plates (Greiner, Monroe, NC, USA) and incubated at room temperature for 45 min."}}}
{"compound": "GRK2-rGFP (from UniProt P25098 1-689) (enzyme)", "values": [{"measurement": "Emax of dopamine-stimulated BRET (% of WT D2R)", "setting": "[1]", "result": "102 % of WT D2R"}]}
{"compound": "β-arrestin2-mVenus (from UniProt P32121 1-409) (natural protein)", "values": [{"measurement": "dopamine-stimulated D2R internalization in HEK293 cells (LYN BRET), Emax as a percentage of WT D2R (β-arrestin not transfected in this assay)", "setting": "[2]", "result": "100 % of WT D2R"}]}
{"compound": "Cn1c(CNc2cccc(C(=O)NCc3ccccc3C(F)(F)F)c2)nnc1-c1ccncc1", "note": "[Cmpd101]", "values": [{"measurement": "inhibition of dopamine-stimulated β-arrestin2 recruitment to the D2R", "setting": "[3]", "result": "unable to completely inhibit"}, {"measurement": "decrease of β-arrestin2 recruitment to the phospho-null D2R", "setting": "[4]", "result": "did not completely eliminate"}, {"measurement": "affinity for other GRK isoforms", "setting": "[5]", "result": "lacks affinity"}, {"measurement": "effect on D2R–GRK2 interactions", "setting": "[6]", "result": "no effect"}, {"measurement": "inhibition of dopamine-stimulated D2R internalization", "setting": "[7]", "result": "completely block"}, {"measurement": "inhibition of GRK2–D2R interactions", "setting": "[8]", "result": "unable to completely block"}, {"measurement": "effect on D2R signaling through G proteins (Go activation BRET assay)", "setting": "[9]", "result": "does not alter"}]}
